From ChEMBL document CHEMBL3272007, “Antiarrhythmics. 2. Synthesis and antiarrhythmic activity of N-(piperidylalkyl)trifluoroethoxybenzamides” (1977)

These molecules were tested on Mus musculus (assay: Antiarrhythmic activity in po dosed Swiss-Webster mouse assessed as protection against chloroform-induced ventricular fibrillation administered in 4% acacia). Details: Heart.
Assay type: functional
`O=C(NCC1CCCCN1)c1c(OCC(F)(F)F)cccc1OCC(F)(F)F` (centres undefined) showed an ED50 of 271 µmol/kg. `CC(C)(C)N(CC1CCCCN1)C(=O)c1cc(OCC(F)(F)F)ccc1OCC(F)(F)F` (centres undefined) was tested, and the ED50 was 17 µmol/kg. For `O=C(NCC1CCCCN1)c1cc(OCC(F)(F)F)cc(OCC(F)(F)F)c1` (centres undefined), the ED50 was 388 µmol/kg. In the case of `C=C[C@H]1CN2CC[C@H]1C[C@@H]2[C@@H](O)c1ccnc2ccc(OC)cc12` [QUINIDINE], the ED50 is reported as 217 µmol/kg. Work on `CC(NC(=O)c1cc(OCC(F)(F)F)ccc1OCC(F)(F)F)C1CCCCN1` (centres undefined) yielded an ED50 of 19 µmol/kg. Molecule `O=C(NCC1CCCCN1)c1ccc(OCC(F)(F)F)cc1` (centres undefined) has an ED50 of 190 µmol/kg. Molecule `O=C(c1cc(OCC(F)(F)F)ccc1OCC(F)(F)F)N1CCN2CCCCC2C1` (centres undefined) has an ED50 greater than 510 µmol/kg. `CC1CCCC(CN(C)C(=O)c2cc(OCC(F)(F)F)ccc2OCC(F)(F)F)N1` (centres undefined) was tested, and the ED50 was 9 µmol/kg. Work on `O=C(NCC1CCCCN1)c1cccc(OCC(F)(F)F)c1OCC(F)(F)F` (centres undefined) yielded an ED50 of 149 µmol/kg. Molecule `O=C(NCC1CCCNC1)c1cc(OCC(F)(F)F)ccc1OCC(F)(F)F` (centres undefined) has an ED50 of 82 µmol/kg. Work on `O=C(NCC1CCCCN1)c1cccc(OCC(F)(F)F)c1` (centres undefined) yielded an ED50 of 76 µmol/kg. Molecule `O=C(NCC1CCCCN1)c1ccc(OCC(F)(F)F)cc1OCC(F)(F)F` (centres undefined) has an ED50 of 244 µmol/kg. In the case of `CC1CCCC(CNC(=O)c2cc(OCC(F)(F)F)ccc2OCC(F)(F)F)N1` (centres undefined), the ED50 is reported as 22 µmol/kg. Work on `O=C(c1cc(OCC(F)(F)F)ccc1OCC(F)(F)F)N(CC1CCCCN1)C1CCCCC1` (centres undefined) yielded an ED50 of 36 µmol/kg. For `CCN(CC)CC(=O)Nc1c(C)cccc1C` [LIDOCAINE], the ED50 was 495 µmol/kg. For `C[N+]1(C)CCCCC1CNC(=O)c1cc(OCC(F)(F)F)ccc1OCC(F)(F)F` (centres undefined), the ED50 was greater than 395 µmol/kg. `O=C(NCC1NCCc2ccccc21)c1cc(OCC(F)(F)F)ccc1OCC(F)(F)F` (centres undefined) gave an ED50 of 380 µmol/kg. Molecule `CCN(CC)CCNC(=O)c1ccc(N)cc1` [PROCAINAMIDE] has an ED50 of 1030 µmol/kg. Molecule `O=C(NC1CCNCC1)c1cc(OCC(F)(F)F)ccc1OCC(F)(F)F` has an ED50 of 144 µmol/kg. Molecule `CCCCN(CC1CCCCN1)C(=O)c1cc(OCC(F)(F)F)ccc1OCC(F)(F)F` (centres undefined) has an ED50 of 32 µmol/kg. With `O=C(NCC1CCNCC1)c1cc(OCC(F)(F)F)ccc1OCC(F)(F)F` the ED50 was 149 µmol/kg. `O=C(NCC1CCCCN1)c1cc(Cl)ccc1OCC(F)(F)F` (centres undefined) showed an ED50 of 230 µmol/kg. With `CCN1CCCC1CNC(=O)c1cc(OCC(F)(F)F)ccc1OCC(F)(F)F` (centres undefined) the ED50 was 70 µmol/kg. Molecule `O=C(NC1CCCNC1)c1cc(OCC(F)(F)F)ccc1OCC(F)(F)F` (centres undefined) has an ED50 of 57 µmol/kg. `O=C(NCC1CCCCN1)c1ccccc1OCC(F)(F)F` (centres undefined) showed an ED50 of 283 µmol/kg. With `Cc1ccc(OCC(F)(F)F)c(C(=O)NCC2CCCCN2)c1` (centres undefined) the ED50 was greater than 600 µmol/kg. `CC[N+]1(C)CCCCC1CNC(=O)c1cc(OCC(F)(F)F)ccc1OCC(F)(F)F` (centres undefined) gave an ED50 greater than 380 µmol/kg. With `CCN1CCCCC1CNC(=O)c1cc(OCC(F)(F)F)ccc1OCC(F)(F)F` (centres undefined) the ED50 was 102 µmol/kg. For `O=C(NCC1CCCCN1)c1cc(OCC(F)(F)F)ccc1OCC(F)(F)F` (centres undefined) [FLECAINIDE ACETATE], the ED50 was 48 µmol/kg. With `O=C(NCC1CCCCN1)c1c(OCC(F)(F)F)cc(OCC(F)(F)F)cc1OCC(F)(F)F` (centres undefined) the ED50 was 95 µmol/kg. With `CN(CC1CCCCN1)C(=O)c1cc(OCC(F)(F)F)ccc1OCC(F)(F)F` (centres undefined) the ED50 was 24 µmol/kg. `O=C(NCC1CCC2CCCCC2N1)c1cc(OCC(F)(F)F)ccc1OCC(F)(F)F` (centres undefined) was tested, and the ED50 was 27 µmol/kg. `CN1CCCCC1CNC(=O)c1cc(OCC(F)(F)F)ccc1OCC(F)(F)F` (centres undefined) gave an ED50 of 44 µmol/kg. `O=C(NCC1CCc2ccccc2N1)c1cc(OCC(F)(F)F)ccc1OCC(F)(F)F` (centres undefined) showed an ED50 greater than 450 µmol/kg. `O=C(NCC1CCCCN1)c1ccc(OCC(F)(F)F)c(OCC(F)(F)F)c1` (centres undefined) was tested, and the ED50 was 277 µmol/kg. `O=CN1CCCCC1CNC(=O)c1cc(OCC(F)(F)F)ccc1OCC(F)(F)F` (centres undefined) showed an ED50 greater than 510 µmol/kg. In the case of `CCN(CC1CCCCN1)C(=O)c1cc(OCC(F)(F)F)ccc1OCC(F)(F)F` (centres undefined), the ED50 is reported as less than 2 µmol/kg. `CCN(CC1CCCN1C)C(=O)c1cc(OCC(F)(F)F)ccc1OCC(F)(F)F` (centres undefined) showed an ED50 of 29 µmol/kg. In the case of `O=C(NCC1CCCCN1)c1cc(F)ccc1OCC(F)(F)F` (centres undefined), the ED50 is reported as 270 µmol/kg.
